From patent publication US20210262032A1, “DETERMINING RESPONDERS TO INFLAMMATION TREATMENT” (RAMBAM MED-TECH LTD., priority 2018, published 2021)

How the values were obtained:
[1] = tested on: Tregs in intestinal tissue; assay: Estimated Treg proportion scores in intestinal tissue by xCell deconvolution of public dataset GEO73661; format: in vivo, human; conditions: post-treatment vs baseline, xCell estimate from GEO73661
Procedure: Deconvolved estimated Tregs proportion scores in intestinal tissue and peripheral blood at baseline and in different time points post-treatment in responding and non-responding patients were evaluated usind xCell.
xCell, which is a computational deconvolution method based on ssGSEA enrichment of cell specific signatures for estimation of abundance scores of immune cell types from the gene expression data, was used. Only cells that had non-zero values in at least 75% of the samples were included.
Estimated cell proportions in intestinal tissue were tested using a publicly available dataset (GEO73661). […] Although Treg accumulation is observed in blood of non-responders, tissue Tregs are not reduced.

[2] = tested on: TNFα expression; assay: Whole blood treated with Vedolizumab, LPA or combination; TNFα expression by qPCR; format: cell-based, human; conditions: whole blood from healthy donors, 3 hours at 37 degrees, Vedolizumab 600 μg/ml, LPA 1 μM, fold-induction over untreated control
Procedure: FIGS. 11A-B: […] synergistic effect between Vedolizumab and LPA in-Vitro. (11A-B) Bar charts showing inflammatory cytokine expression including (11A) TNFα and (11B) IL-1β post incubation with Vedolizumab (600 μg/ml), LPA (1 μM) and co-incubation of the two substances, using qPCR for quantification. Un-treated whole blood basal expression served as control and values were expressed as fold-induction over control. Data were pooled from three independent experiments. Significance was calculated using Wilcoxon-test (two-sided; μ=1)
The combined effect of Vedolizumab and LPA was next tested on blood cells. Whole blood from healthy donors was treated with Vedolizumab, LPA or a combination for 3 hours at 37 degrees and pro-inflammatory cytokine expression was measured. Untreated whole blood was used as a control. […] This may be due to the fact that there are 6 LPA receptors and it appears that antagonism of only one of them is not sufficient to completely counter act the effect of the LPA.

[3] = tested on: IBD (UC and CD) patients; assay: Primary clinical response to Vedolizumab in IBD patients, cohort 1; format: in vivo, human; conditions: number of patients with 0—None / 1—partial / 2—full response; for clinical 2 w (0/1/2): 2 weeks; for clinical 14 w (0/1/2): 14 weeks; for clinical 26 w (0/1/2): 26 weeks; for clinical 52 w (0/1/2): 52 weeks
From the text: The exploratory study cohort consisted of 73 whole blood samples from 22 IBD (UC and CD) patients, who received Vedolizumab treatment at the Rambam Health Care Campus (RHCC) and met the study inclusion criteria. Patients that had past exposure to Vedolizumab, or patients who had active infection including febrile diseases or intra-abdominal or perianal abscess were excluded.
Samples were collected at the following time-points: pretreatment, 2 weeks and 14 weeks post first treatment and following one year of treatment for those patients who received long-term care. Patients were classified for response by clinical score after one-year follow-up and were clinically characterized as detailed in table 2.

Substance	Tregs frequency in intestinal tissue ([1]; non-responders)	Tregs frequency in intestinal tissue ([1]; responding patients)	TNFα expression [2]	clinical 2 w (0/1/2) ([3]; Non-responders (n = 10))	clinical 14 w (0/1/2) ([3]; Non-responders (n = 10))	clinical 26 w (0/1/2) ([3]; Non-responders (n = 10))	clinical 52 w (0/1/2) ([3]; Non-responders (n = 10))	clinical 2 w (0/1/2) ([3]; Responders (n = 12))	clinical 14 w (0/1/2) ([3]; Responders (n = 12))	clinical 26 w (0/1/2) ([3]; Responders (n = 12))	clinical 52 w (0/1/2) ([3]; Responders (n = 12))
Vedolizumab	unaffected	reduces Tregs frequency	neither Vedolizumab nor LPA alone had an effect	5/5/0	7/2/1	8/2/0	10/0/0	1/7/0	1/5/2	0/4/5	0/0/12
lysophosphatidic acid [LPA]	–	–	neither Vedolizumab nor LPA alone had an effect	–	–	–	–	–	–	–	–
